Patent US20050054559A1, “Compounds for sustained release of orally delivered drugs” (priority 2000, published 2005)
pIC50: −log10 of the molar value.

Tests used:
[1] = In vitro enzymatic release in human intestine S9; settings: Human Intestine S9 (0.5 mg/mL); substrate 2.0 μM; NADPH; 37° C.
[2] = In vitro enzymatic release in rat plasma; settings: substrate 2.0 μM, no cofactors, 37° C.
[3] = target: T1, Aminopeptidase 1 (Streptomyces griseus subsp. griseus, UniProt P80561); assay: Aminopeptidase stability; type: in vitro ADME; settings: substrate 5.0 μM, no cofactors, pH 8.0, 37° C.
T1 construct: purchased Sigma A-9934
T1 sequence (P80561 46-329): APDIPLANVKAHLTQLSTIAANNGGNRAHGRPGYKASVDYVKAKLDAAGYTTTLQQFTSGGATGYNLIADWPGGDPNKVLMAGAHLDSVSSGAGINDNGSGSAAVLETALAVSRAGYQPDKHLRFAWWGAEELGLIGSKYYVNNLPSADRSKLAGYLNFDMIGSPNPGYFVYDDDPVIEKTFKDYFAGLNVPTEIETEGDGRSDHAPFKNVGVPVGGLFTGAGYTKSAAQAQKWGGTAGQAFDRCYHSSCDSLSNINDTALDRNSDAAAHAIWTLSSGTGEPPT
Experimental: Aminopeptidase Stability: Aminopeptidase 1 (Sigma catalog # A-9934) was diluted in deionised water to a concentration of 856 units/mL. Stability studies were conducted by incubating prodrug (5 μM) with 0.856 units/mL aminopeptidase 1 in 50 mM Tris-HCl buffer at pH 8.0 and 37° C. Concentrations of intact prodrug and released drug were determined at zero time and 60 minutes using LC/MS/MS.
Concentrations of (2), (4), (7g) or Phe-Gabapentin in tissue extracts were determined by direct injection onto an API 2000 LC/MS/MS equipped with an Agilent 1100 binary pump and autosampler. Separation was achieved using a 3.5 μm Zorbax Ellipse XDB-C8 4.4×150 mm column heated to 45° C. during the analysis. The mobile phases were: 0.1% formic acid in water (A) and 0.1% formic acid in acetonitrile (B). The gradient condition was: 2% B for 0.5 min, increasing to 90% B in 2.0 min, maintained for 2.5 min and returning to 2% B for 2 min. A TurbolonSpray source was used on the API 2000. The analysis was performed in the positive ion mode and MRM transitions of 709.5/172.1 and 172.0/137.2 were used in the analysis of Cholyl-Phe-Gabapentin (7g) and gabapentin (2) respectively. Ten microliters of the sample extracts were injected. Peaks were integrated using Analyst quantitation software. The method was linear for (7g) or (2) over the concentration range 0.01 to 12.5 μg/mL and 0.002 to 2.5 μg/mL respectively.

[4] = In vitro enzymatic release in rat liver S9; settings: Rat Liver S9 (0.5 mg/mL); substrate 2.0 μM; NADPH; 37° C.
[5] = In vitro enzymatic release in human liver S9; settings: Human Liver S9 (0.5 mg/mL); substrate 2.0 μM; NADPH; 37° C.
[6] = Caco-2 homogenate S9 stability; type: in vitro ADME; settings: substrate 5.0 μM, no cofactors, 37° C.
Experimental: Caco-2 Homogenate S9 Stability. Caco-2 cells were grown for 21 days prior to harvesting. Culture medium was removed and cell monolayers were rinsed and scraped off into ice-cold 10 mM sodium phosphate/0.15 M potassium chloride, pH 7.4. Cells were lysed by sonication at 4° C. using a probe sonicator. Lysed cells were then transferred into 1.5 mL centrifuge vials and centrifuged at 9000 g for 20 min at 4° C. The resulting supernatant (Caco-2 cell homogenate S9 fraction) was aliquoted into 0.5 mL vials and stored at −80° C. until used.
For stability studies, prodrug (5 μM) was incubated in Caco-2 homogenate S9 fraction (0.5 mg protein per mL) for 60 min at 37° C. Concentrations of intact prodrug and released drug were determined at zero time and 60 minutes using LC/MS/MS.
Concentrations of (2), (4), (7g) or Phe-Gabapentin in tissue extracts were determined by direct injection onto an API 2000 LC/MS/MS equipped with an Agilent 1100 binary pump and autosampler. Separation was achieved using a 3.5 μm Zorbax Ellipse XDB-C8 4.4×150 mm column heated to 45° C. during the analysis. The mobile phases were: 0.1% formic acid in water (A) and 0.1% formic acid in acetonitrile (B). The gradient condition was: 2% B for 0.5 min, increasing to 90% B in 2.0 min, maintained for 2.5 min and returning to 2% B for 2 min. […] Peaks were integrated using Analyst quantitation software. […]

[7] = target: T2, LBAT (Homo sapiens, UniProt Q14973); assay: Inhibition of radiolabeled taurocholate uptake in LBAT-transfected CHO cells; type: cell-based; settings: radiolabeled competition assay in transporter-expressing CHO cells
T2 construct: expressed in transfected cells; host or cells: CHO cells
T2 sequence (Q14973 whole entry): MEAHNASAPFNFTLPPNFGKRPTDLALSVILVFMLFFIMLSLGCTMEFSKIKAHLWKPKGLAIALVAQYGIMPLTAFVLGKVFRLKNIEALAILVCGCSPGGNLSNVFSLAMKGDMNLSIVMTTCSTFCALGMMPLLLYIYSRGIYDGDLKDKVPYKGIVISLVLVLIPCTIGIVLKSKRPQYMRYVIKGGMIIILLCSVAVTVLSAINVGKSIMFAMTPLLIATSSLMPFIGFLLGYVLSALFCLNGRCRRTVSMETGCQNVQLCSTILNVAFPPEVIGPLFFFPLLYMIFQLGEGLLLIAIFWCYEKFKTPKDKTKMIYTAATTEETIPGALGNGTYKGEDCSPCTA
Experimental: (§1) CHO cells transfected with either the IBAT or LBAT transporter were seeded into 96-well microtiter plates at 100,000 cells/well in 100 μL DMEM containing 10% serum, glutamine and Penstrep. After overnight incubation the media was removed and test compound (25 μL) added at 2× the final desired concentration. Tritiated taurocholate (50,000 CPM/well) was diluted with cold substrate to a final concentration of 5 μM and 25 μL/well of this mixture was added to the plate. After incubating for 1 h at room temperature the solution was removed and the plate washed 4× with PBS at 4° C. 200 μL/well of scintillant is added and the plate then read in a Wallac microbeta counter. The inhibition data is processed by standard methods to calculate an inhibition constant Ki for the test compound.

[8] = target: T3, IBAT (Homo sapiens, UniProt Q12908); assay: Electrogenic transport in Xenopus oocytes expressing IBAT; type: cell-based; settings: relative to glycodeoxycholate
T3 sequence (Q12908 whole entry): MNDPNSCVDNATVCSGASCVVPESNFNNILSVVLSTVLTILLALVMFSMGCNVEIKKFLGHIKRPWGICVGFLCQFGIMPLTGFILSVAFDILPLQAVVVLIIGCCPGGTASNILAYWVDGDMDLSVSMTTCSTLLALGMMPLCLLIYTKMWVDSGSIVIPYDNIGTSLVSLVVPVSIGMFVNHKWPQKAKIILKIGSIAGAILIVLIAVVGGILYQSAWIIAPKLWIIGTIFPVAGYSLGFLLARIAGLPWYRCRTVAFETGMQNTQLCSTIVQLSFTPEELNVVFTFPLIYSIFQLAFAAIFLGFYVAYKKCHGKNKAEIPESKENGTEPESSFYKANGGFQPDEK
Text: RNA preparation: Human IBAT and LBAT Transporter cDNAs were subcloned into a modified pGEM plasmid that contains 5′ and 3′ untranslated sequences from the Xenopus β-actin gene. These sequences increase RNA stability and protein expression. Plasmid cDNA was linearized and used as template for in vitro transcription (Epicentre Technologies transcription kit, 4:1 methylated:non-methylated GTP).
Xenopus oocyte isolation. Xenopus laevis frogs were anesthetized by immersion in Tricaine ([…] in deionized water) for 15 min. Oocytes were removed and digested in frog ringer solution (90 mM NaCl, 2 mM KCl, 1 mM MgCl2, 10 mM NaHEPES, pH 7.45, no CaCl2) with 1 mg/mL collagenase (Worthington Type 3) for 80-100 min with shaking. The oocytes were washed 6 times, and the buffer changed to frog ringer solution containing CaCl2 (1.8 mM). Remaining follicle cells were removed if necessary. Cells were incubated at 16° C., and each oocyte injected with […] RNA in […] solution.
Electrophysiology measurements. Transport currents were measured 2-14 days after injection, using a standard two-electrode electrophysiology set-up (Geneclamp 500 amplifier, Digidata 1320/PCLAMP software and ADInstruments hardware and software were used for signal acquisition). Electrodes ([…]) were microfabricated using a Sutter Instrument puller and filled with 3M KCl. The bath was directly grounded (transporter currents were less than 0.3 μA). Bath flow was controlled by an automated perfusion system (ALA Scientific Instruments, solenoid valves).
For transporter pharmacology, oocytes were clamped at −60 to −90 mV, and continuous current measurements acquired using PowerLab Software and an ADInstruments digitizer. Current signals were lowpass filtered at 20 Hz and acquired at 4-8 Hz. All bath and drug-containing solutions were frog ringers solution containing CaCl2. Drugs were applied for 10-30 seconds until the induced current reached a new steady-state level, followed by a control solution until baseline currents returned to levels that preceded drug application. The difference current (baseline subtracted from peak current during drug application) reflected the net movement of charge resulting from electrogenic transport and was directly proportional to tranport rate. Recordings were made from a single oocyte for up to 60 min, enabling 30-40 separate compounds to be tested per oocyte. […]. Using this normalization procedure Vmax (i.e. maximal induced current) for different compounds tested on different oocytes could be compared.

[9] = In vitro enzymatic release in human plasma; settings: substrate 2.0 μM, no cofactors, 37° C.
[10] = target: T3, IBAT; assay: Inhibition of radiolabeled taurocholate uptake in IBAT-transfected CHO cells; type: cell-based; parameters: expressed in transfected cells; host or cells: CHO cells; settings: radiolabeled competition assay in transporter-expressing CHO cells
Experimental: as §1

[11] = Pharmacokinetics of N-phthaloylglycine prodrug (61) in rats (Example 42); type: in vivo, rat; settings: oral (61) 240 mg/kg, post dosing
Experimental: The pharmacokinetics of the N-phthaloylglycine prodrug (61) is examined in rats. […] Serial blood samples are obtained over 24 hours following dosing and blood is processed for plasma by centrifugation. Plasma samples are stored at −80° C. until analyzed. Concentrations of N-phthaloylglycine or (61) in plasma samples are determined by LC/MS/MS.

[12] = system: pancreatin; assay: Pancreatin stability; type: in vitro ADME, porcine; settings: gabapentin (2) released by 1% (w/v) pancreatin; prodrug 5 μM; pH 7.5; 37° C.; 60 min
Experimental: Pancreatin Stability: Stability studies were conducted by incubating prodrug (5 μM) with 1% (w/v) pancreatin (Sigma, P-1625, from porcine pancreas) in 0.025 M Tris buffer containing 0.5 M NaCl (pH 7.5) at 37° C. for 60 min. The reaction was stopped by addition of 2 volumes of methanol. After centrifugation at 14,000 rpm for 10 min, the supernatant was removed and analyzed by LC/MS/MS.

Compound: NC(Cc1ccccc1)C(=O)NCC1(CC(=O)O)CCCCC1 (stereo not shown) [Phe-Gabapentin]
- Percent of Gabapentin Released in 60 min [1]: 5%
- Percent of Gabapentin Released in 60 min [2]: 19%
- Percent of Gabapentin Released in 60 min [3]: 24%
- Percent of Gabapentin Released in 60 min [4]: 1%
- Percent of Gabapentin Released in 60 min [5]: 1%
- Percent of Gabapentin Released in 60 min [6]: 21%

Compound: Cholyl-Dopa-(4-pivaloyloxymethyl) [(21)]
- pIC50 [7]: 6.70
- Percent of (20) Released in 60 min [1]: 95%
- Percent of (20) Released in 60 min [2]: 75%
- % Max. (GDC) [8]: 104%
- Percent of (20) Released in 60 min [9]: 90%
- Percent of (20) Released in 60 min [4]: 35%
- Percent of (20) Released in 60 min [5]: 70%
- pIC50 [10]: 4.04

Compound: N[C@@H](CCC(=O)O)C(=O)N[C@@H](CSC(=O)CN1C(=O)c2ccccc2C1=O)C(=O)NCC(=O)O [Compound (61), H-Glu-Cys(N-phthaloylglycyl)-Gly-OH]
- time at which liberated N-phthaloylglycine is apparent in plasma [11]: ≤ 30 min

Compound: CC(CCC(=O)NC(Cc1ccc(O)cc1)C(=O)NCC1(CC(=O)O)CCCCC1)C1CCC2C3C(O)CC4CC(O)CCC4(C)C3CC(O)C12C (stereo not shown) [(7h), Cholyl-Tyr-Gabapentin]
- % (2) Released [12]: 40%
